The target in one data set is T1, ADLP (Thermus thermophilus, UniProt Q72IQ0).
T1 sequence (Q72IQ0 1-345): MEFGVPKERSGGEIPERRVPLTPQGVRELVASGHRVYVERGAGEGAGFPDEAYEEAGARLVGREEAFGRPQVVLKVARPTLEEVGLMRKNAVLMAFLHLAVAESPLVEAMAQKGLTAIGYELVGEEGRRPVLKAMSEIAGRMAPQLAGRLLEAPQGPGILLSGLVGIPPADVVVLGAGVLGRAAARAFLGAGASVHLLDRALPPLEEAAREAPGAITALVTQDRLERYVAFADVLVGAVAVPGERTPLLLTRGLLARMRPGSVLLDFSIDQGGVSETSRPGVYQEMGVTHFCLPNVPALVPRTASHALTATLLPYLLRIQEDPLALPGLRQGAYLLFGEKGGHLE
The experiment in a line: isothermal titration calorimetry. Type of data set: binding.

Data set [1] concerns the target TtCoAT·ADLP complex (NAD(H) site in ADLP) (Thermus thermophilus, UniProt Q72IQ0). The experiment in a line: isothermal titration calorimetry. It is filed as binding.
The test system of data set [2] is CCCC(=O)SCCNC(=O)CCNC(=O)[C@H](O)C(C)(C)COP(=O)(O)OP(=O)(O)OC[C@H]1O[C@@H](n2cnc3c(N)ncnc32)[C@H](O)[C@@H]1OP(=O)(O)O. The experiment in a line: purified protein. Particulars: 100 mM acetate as co-substrate, pH 7.5, no NAD+.

For orientation: Kd means a measure of binding affinity in units of concentration. Take `NC(=O)C1=CN([C@@H]2O[C@H](COP(=O)(O)OP(=O)(O)OC[C@H]3O[C@@H](n4cnc5c(N)ncnc54)[C@H](O)[C@@H]3O)[C@@H](O)[C@H]2O)C=CC1` [NADH]: the Kd amounted to 220 nM on ADLP and 340 ± 51 nM in data set [1]. `NC(=O)c1ccc[n+]([C@@H]2O[C@H](COP(=O)(O)OP(=O)(O)OC[C@H]3O[C@@H](n4cnc5c(N)ncnc54)[C@H](O)[C@@H]3O)[C@@H](O)[C@H]2O)c1` [NAD^+]: the Kd at ADLP is 9100 nM; in data set [1], 3100 ± 330 nM. The Km is the substrate concentration at which the rate is half of its maximum. For the compound “TtCoAT·ADLP (CoA transferase site) (Thermus thermophilus HB27)”, the Michaelis-Menten constant (Km) in data set [2] was found to be 33.1 ± 2.8 µM.

Values taken from doi:10.1101/2025.10.31.685773v1 (biorxiv, 2025).
